Molecular target: Delta-5-Desaturase (D5D) (Homo sapiens (Human), UniProt O60427)
Assay: In vitro measurement of Delta-5-Desaturase inhibitory activity using DGLA-CoA and Arachidonyl-CoA mass spectrometric assays
Format: biochemical
Conditions: membrane preparations of D5D-overexpressing HEK293 6E cells; averaged over at least two independent runs
Protocol: In vitro Measurement of Delta-5-Desaturase Inhibitory Activity using DGLA-CoA and Arachidonyl-CoA Mass Spectrometric Assays
Membrane preparations of D5D-overexpressing HEK293 6E cells were prepared in which the total protein concentration was 5.6 mg/mL. Stock D5D membrane preparations were diluted in D5D assay buffer (25 mM 2-amino-2-(hydroxymethyl)-1,3-propanediol, pH 7.5 containing 10 mM MgCl2, 1 mM octyl glucoside (SigmaAldrich 0-8001), 1 mM tris(2-carboxyethyl)phosphine hydrochloride (SigmaAldrich 646547)) to a final D5D membrane concentration of 10 μg/mL in an assay plate containing serially diluted test compounds. To 15 μL of this D5D preparation was added 15 μL of a substrate solution (0.25 mM NADH (nicotinamide adenine dinucleotide, Roche Diag. 10107735001), 0.25 mM adenosine triphosphate (SigmaAldrich A-3377), 0.05 mM coenzyme A hydrate (SigmaAldrich C-4282), and 0.01 mM DGLA (dihomo-g-linolenic acid, Sigma E-4504) in the same D5D assay buffer. After one-hour incubation at ambient temperature acetonitrile (30 μL) was added to quench the reaction and plates were centrifuged for 10 min @3,000 rpm. Mass spectrometric analysis involved a Rapidfire 360 SPE system coupled to an ABSciex API4000 Triple Quadrupole mass spectrometer using a C18 SPE cartridge (G9203-80105) with ionization in negative mode (solvent A=100% water; solvent B=100% acetonitrile, each solvent containing 5 mM ammonium acetate). DGLA-CoA and Arachidonyl-CoA were detected by multiple reaction monitoring (MRM) of the doubly charged parent ions at m/z 526.6 and 525.6, respectively.
Sx is value from unknown sample, So is value from DMSO alone and Sc is value from no enzyme well. For CRC analysis, the % of inhibitions were analyzed with 4 Parameter Logistic Model or Sigmoidal Dose-Response Model using XLfit (IDBS, Guilford, UK). The potency of the test item was expressed as IC50 nM, corresponding to the test item concentration able to inhibit the 50% of the enzyme maximal response. IC50 values were averaged values determined by at least two independent runs.
This assay may be used to test any of the compounds described herein to assess and characterize a compound's ability to inhibit D5D.

Sequence of Delta-5-Desaturase (D5D) (O60427 whole entry, species assumed): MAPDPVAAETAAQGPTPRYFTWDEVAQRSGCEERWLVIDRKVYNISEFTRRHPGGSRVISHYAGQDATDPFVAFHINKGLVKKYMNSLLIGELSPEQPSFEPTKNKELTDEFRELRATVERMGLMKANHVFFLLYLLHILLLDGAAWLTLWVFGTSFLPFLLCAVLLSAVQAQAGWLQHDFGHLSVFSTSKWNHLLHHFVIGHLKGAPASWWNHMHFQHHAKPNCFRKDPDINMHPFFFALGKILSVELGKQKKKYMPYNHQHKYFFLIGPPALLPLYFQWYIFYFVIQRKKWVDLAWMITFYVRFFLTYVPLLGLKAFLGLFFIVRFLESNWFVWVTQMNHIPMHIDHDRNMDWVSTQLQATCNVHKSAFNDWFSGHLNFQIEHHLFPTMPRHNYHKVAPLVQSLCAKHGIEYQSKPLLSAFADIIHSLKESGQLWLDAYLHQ

| SMILES | IC50 [µM] |
| --- | --- |
| C[S+]([O-])c1ccn2c(=O)c(-c3ccc(OCC(F)(F)F)cc3)c(C(F)(F)F)nc2c1 (centres unmarked) [Example 15-1, 8-(Methylsulfinyl)-3-(4-(2,2,2-trifluoroethoxy)phenyl)-2-(trifluoromethyl)-4H-pyrido[1,2-a]pyrimidin-4-one] | 0.441 |
| COc1ccn2c(=O)c(-c3cc(-c4ccccc4)no3)c(C(F)(F)F)nc2c1 [Example 1-5, 8-methoxy-3-(3-phenyl-1,2-oxazol-5-yl)-2-(trifluoromethyl)-4H-pyrido[1,2-a]pyrimidin-4-one] | 0.046 |
| O=c1ccn2c(=O)c(-c3ccc(OCC(F)(F)F)c(F)c3)c(C(F)(F)F)nc2[nH]1 [Example 10-2, 7-(3-fluoro-4-(2,2,2-trifluoroethoxy)phenyl)-8-(trifluoromethyl)-2H-pyrimido[1,2-a]pyrimidine-2,6(1H)-dione] | 0.328 |
| O=c1c(-c2ccc(OCC(F)(F)F)cc2)c(C(F)(F)F)nc2cc(F)ccn12 [Example 2-3, 8-fluoro-3-(4-(2,2,2-trifluoroethoxy)phenyl)-2-(trifluoromethyl)-4H-pyrido[1,2-a]pyrimidin-4-one] | 0.0884 |
| COc1ccn2c(=O)c(-c3cnn(CC4COC4)c3)c(C(F)(F)F)nc2c1 [Example 39-54, 8-methoxy-3-{1-[(oxetan-3-yl)methyl]-1H-pyrazol-4-yl}-2-(trifluoromethyl)-4H-pyrido[1,2-a]pyrimidin-4-one] | 0.207 |
| COc1ccn2c(=O)c(-c3cnn(-c4ccccc4)c3)c(C(F)(F)F)nc2c1 [Example 1-47, 8-methoxy-3-(1-phenyl-1H-pyrazol-4-yl)-2-(trifluoromethyl)-4H-pyrido[1,2-a]pyrimidin-4-one] | 0.0054 |
| O=c1c(-c2ccc(OCC(F)(F)F)cc2)c(C(F)(F)F)nc2cc(-c3ncco3)ccn12 [Example 29, 8-(1,3-Oxazol-2-yl)-3-(4-(2,2,2-trifluoroethoxy)phenyl)-2-(trifluoromethyl)-4H-pyrido[1,2-a]pyrimidin-4-one] | 0.0971 |
| CCCc1ccc(-c2c(C(F)(F)F)nc3cc(OC)ccn3c2=O)cn1 [Example 7-6, 8-methoxy-3-(6-propyl-3-pyridinyl)-2-(trifluoromethyl)-4H-pyrido[1,2-a]pyrimidin-4-one] | 0.302 |
| COc1ccn2c(=O)c(-c3cnn(C[C@H]4CC4(F)F)c3)c(C(F)(F)F)nc2c1 [Example 69, 3-(1-{[(1R)-2,2-Difluorocyclopropyl]methyl}-1H-pyrazol-4-yl)-8-methoxy-2-(trifluoromethyl)-4H-pyrido[1,2-a]pyrimidin-4-one] | 0.0182 |
| COc1cnc2nc(C(F)(F)F)c(-c3cnn(CC(F)(F)C(F)(F)F)c3)c(=O)n2c1 [Example 40-1, 7-Methoxy-3-[1-(2,2,3,3,3-pentafluoropropyl)-1H-pyrazol-4-yl]-2-(trifluoromethyl)-4H-[1,3]diazino[1,2-a]pyrimidin-4-one] | 0.153 |
| CCCc1ccc(-c2c(C(F)(F)F)nc3cc(OC)ccn3c2=O)cc1 [Example 1-79, 8-methoxy-3-(4-propylphenyl)-2-(trifluoromethyl)-4H-pyrido[1,2-a]pyrimidin-4-one] | 0.0036 |
| COc1ccn2c(=O)c(-c3ccc(OCCF)cc3)c(C(F)(F)F)nc2n1 [Example 1-57, 3-(4-(2-fluoroethoxy)phenyl)-8-methoxy-2-(trifluoromethyl)-4H-pyrimido[1,2-a]pyrimidin-4-one] | 0.226 |
| COc1ccn2c(=O)c(-n3cnc(CCC(F)(F)F)c3)c(C(F)(F)F)nc2c1 [Example 59, 8-Methoxy-2-(trifluoromethyl)-3-[4-(3,3,3-trifluoropropyl)-1H-imidazol-1-yl]-4H-pyrido[1,2-a]pyrimidin-4-one] | 0.365 |
| [2H]C([2H])([2H])n1c(=O)ccn2c(=O)c(-c3ccc(OCC(F)(F)F)cc3)c(C(F)(F)F)nc12 [Example 11-1, 1-(Methyl-d3)-7-(4-(2,2,2-trifluoroethoxy)phenyl)-8-(trifluoromethyl)-2H-pyrimido[1,2-a]pyrimidine-2,6(1H)-dione] | 0.0482 |

The next lines start with the values.

| IC50 [µM] | SMILES |
| --- | --- |
| 0.18 | COc1ccn2c(=O)c(-c3cnn(CCCC(F)(F)F)c3)c(C(F)(F)F)nc2n1 [Example 1-38, 8-methoxy-3-(1-(4,4,4-trifluorobutyl)-1H-pyrazol-4-yl)-2-(trifluoromethyl)-4H-pyrimido[1,2-a]pyrimidin-4-one] |
| 0.742 | O=c1c(-c2cnn(CC(F)(F)C(F)(F)F)c2)c(C(F)(F)F)nc2cc(O)c(F)cn12 [Example 43, 7-Fluoro-8-hydroxy-3-[1-(2,2,3,3,3-pentafluoropropyl)-1H-pyrazol-4-yl]-2-(trifluoromethyl)-4H-pyrido[1,2-a]pyrimidin-4-one] |
| 0.119 | O=c1c(-c2cnn(CC(F)(F)C(F)(F)F)c2)c(C(F)(F)F)nc2cc(OCCl)cnn12 [Example 48, 8-(Chloromethoxy)-3-[1-(2,2,3,3,3-pentafluoropropyl)-1H-pyrazol-4-yl]-2-(trifluoromethyl)-4H-pyrimido[1,2-b]pyridazin-4-one] |
| 0.028 | Cc1cn2c(=O)c(-c3cnn(CC(F)(F)C(F)(F)F)c3)c(C(F)(F)F)nc2cn1 [Example 39-31, 7-methyl-3-[1-(2,2,3,3,3-pentafluoropropyl)-1H-pyrazol-4-yl]-2-(trifluoromethyl)-4H-pyrazino[1,2-a]pyrimidin-4-one] |
| > 67 | CN(C)Cc1ccc2nc(C(F)(F)F)c(-c3cnn(CC(F)(F)C(F)(F)F)c3)c(=O)n2c1 [Example 39-29, 7-[(dimethylamino)methyl]-3-[1-(2,2,3,3,3-pentafluoropropyl)-1H-pyrazol-4-yl]-2-(trifluoromethyl)-4H-pyrido[1,2-a]pyrimidin-4-one] |
| 1.81 | O=c1c(-c2cnn(CC(F)(F)C(F)(F)F)c2)c(C(F)(F)F)nc2cc(O)cnn12 [Example 44, 8-Hydroxy-3-[1-(2,2,3,3,3-pentafluoropropyl)-1H-pyrazol-4-yl]-2-(trifluoromethyl)-4H-pyrimido[1,2-b]pyridazin-4-one] |
| 0.113 | COc1cc2nc(C(F)(F)F)c(-c3cnn(CCC(F)(F)F)c3)c(=O)n2cc1Cl [Example 39-2, 7-chloro-8-methoxy-2-(trifluoromethyl)-3-[1-(3,3,3-trifluoropropyl)-1H-pyrazol-4-yl]-4H-pyrido[1,2-a]pyrimidin-4-one] |
| 1.52 | COCc1ccc2nc(C(F)(F)F)c(-c3cnn(CC(F)(F)C(F)(F)F)c3)c(=O)n2c1 [Example 39-24, 7-(methoxymethyl)-3-[1-(2,2,3,3,3-pentafluoropropyl)-1H-pyrazol-4-yl]-2-(trifluoromethyl)-4H-pyrido[1,2-a]pyrimidin-4-one] |
| 0.004 | COc1ccn2c(=O)c(-c3ccc(OCC(F)(F)C(F)(F)F)cc3)c(C(F)(F)F)nc2c1 [Example 22, 8-Methoxy-3-(4-(2,2,3,3,3-pentafluoropropoxy)phenyl)-2-(trifluoromethyl)-4H-pyrido[1,2-a]pyrimidin-4-one] |
| 6.77 | Cc1cc2nc(C(F)(F)F)c(-c3cnn(CC(F)(F)C(F)(F)F)c3)c(=O)n2nc1C [Example 39-46, 7,8-dimethyl-3-[1-(2,2,3,3,3-pentafluoropropyl)-1H-pyrazol-4-yl]-2-(trifluoromethyl)-4H-pyrimido[1,2-b]pyridazin-4-one] |
| > 67 | O=c1c(-c2cnc(OCC(F)(F)F)nc2)c(C(F)(F)F)nc2ccc(Cl)cn12 [Example 39-18, 7-chloro-3-[2-(2,2,2-trifluoroethoxy)pyrimidin-5-yl]-2-(trifluoromethyl)-4H-pyrido[1,2-a]pyrimidin-4-one] |
| > 67 | Cc1cn2c(=O)c(-c3cnc(OCC(F)(F)F)nc3)c(C(F)(F)F)nc2cn1 [Example 39-30, 7-methyl-3-[2-(2,2,2-trifluoroethoxy)pyrimidin-5-yl]-2-(trifluoromethyl)-4H-pyrazino[1,2-a]pyrimidin-4-one] |
| 0.833 | COc1ccn2c(=O)c(-c3cnn(CCC#N)c3)c(C(F)(F)F)nc2c1 [Example 1-24, 3-(4-(8-methoxy-4-oxo-2-(trifluoromethyl)-4H-pyrido[1,2-a]pyrimidin-3-yl)-1H-pyrazol-1-yl)propanenitrile] |
| 0.0859 | O=c1c(-c2cnn(CC(F)(F)C(F)(F)F)c2)c(C(F)(F)F)nc2cc(C3CC3)ccn12 [Example 1-87, 8-cyclopropyl-3-(1-(2,2,3,3,3-pentafluoropropyl)-1H-pyrazol-4-yl)-2-(trifluoromethyl)-4H-pyrido[1,2-a]pyrimidin-4-one] |
| 0.42 | Cc1cnn2c(=O)c(-c3cnn(CC4CC(F)(F)C4)c3)c(C(F)(F)F)nc2c1 [Example 39-52, 3-{1-[(3,3-difluorocyclobutyl)methyl]-1H-pyrazol-4-yl)-8-methyl-2-(trifluoromethyl)-4H-pyrimido[1,2-b]pyridazin-4-one] |

From patent US12473289B2, “Heterocyclic compounds as delta-5 desaturase inhibitors and methods of use” (Amgen Inc., priority 2019, dated 2025)
